Assay results taken from PubChem BioAssay (NCI).
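Cultured in 96-well plates, cells were exposed to test compound for 48 hours across five concentrations. Here, GI50 denotes the concentration required for 50% inhibition of growth. TGI denotes the concentration required for complete inhibition of growth.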

Tests used:
Experiment in all cases: NCI anticancer screen, dose series, 48 h
OVCAR-5 ovarian = test system: OVCAR-5 ovarian
UO-31 renal = test system: UO-31 renal
MALME-3M melanoma = test system: MALME-3M melanoma
A498 renal = test system: A498 renal
CCRF-CEM leukemia = test system: CCRF-CEM leukemia
OVCAR-3 ovarian = test system: OVCAR-3 ovarian
OVCAR-4 ovarian = test system: OVCAR-4 ovarian
CAKI-1 renal = test system: CAKI-1 renal
OVCAR-8 ovarian = test system: OVCAR-8 ovarian
HT29 colon = test system: HT29 colon
EKVX NSCLC = test system: EKVX NSCLC

| Compound | TGI (OVCAR-5 ovarian) | TGI (UO-31 renal) | TGI (MALME-3M melanoma) | TGI (A498 renal) | TGI (CCRF-CEM leukemia) | TGI (OVCAR-3 ovarian) | TGI (OVCAR-4 ovarian) | TGI (CAKI-1 renal) | TGI (OVCAR-8 ovarian) | TGI (HT29 colon) | TGI (EKVX NSCLC) | GI50 (OVCAR-5 ovarian) | GI50 (UO-31 renal) | GI50 (MALME-3M melanoma) | GI50 (A498 renal) | GI50 (CCRF-CEM leukemia) | GI50 (OVCAR-3 ovarian) | GI50 (OVCAR-4 ovarian) | GI50 (EKVX NSCLC) | GI50 (HT29 colon) |
| --- | --- | --- | --- | --- | --- | --- | --- | --- | --- | --- | --- | --- | --- | --- | --- | --- | --- | --- | --- | --- |
| O=C1NC(=O)C(C(c2ccc([N+](=O)[O-])cc2)C2C(=O)NC(=O)NC2=O)C(=O)N1 | > 100 µM | > 100 µM | > 100 µM | > 100 µM | > 100 µM | > 100 µM | > 100 µM | > 100 µM | > 100 µM | > 100 µM |  |  |  |  |  |  |  |  |  |  |
| CN(CCNC(=O)c1nn(-c2ccc(Cl)cc2Cl)c2c1Cc1ccccc1-2)CCNC(=O)c1nn(-c2ccc(Cl)cc2Cl)c2c1Cc1ccccc1-2 | > 87.5 µM | 7.81 µM | 3.42 µM | 12.9 µM | 7.82 µM | 17.4 µM | > 20 µM | > 47.4 µM | 4.44 µM | 5.55 µM | > 100 µM |  |  |  |  |  |  |  |  |  |
| O=c1oc2cc(O)ccc2c2oc3cc(O)ccc3c12 | > 125 µM | > 117 µM | > 125 µM | 3.4 µM | > 125 µM | 114 µM | > 125 µM | > 107 µM | > 125 µM | > 125 µM | > 125 µM |  |  |  |  |  |  |  |  |  |
| CN(C)c1ccc(C2CC(=O)CC(c3ccc(N(C)C)cc3)C23C(=O)NC(=S)NC3=O)cc1 (stereo not drawn) | > 100 µM | > 100 µM | > 100 µM | > 100 µM | > 100 µM | > 100 µM | > 100 µM | > 100 µM |  | > 100 µM | > 100 µM |  |  |  |  |  |  |  |  |  |
| N#Cc1ccc([N+](=O)[O-])cc1NC(N)=S | > 100 µM | > 100 µM | > 100 µM | > 100 µM |  | > 100 µM |  | > 100 µM | > 100 µM | > 100 µM | > 100 µM |  |  |  |  |  |  |  |  |  |
| CN1c2c(nc(N)[nH]c2=O)NCC1CCNc1ccc(C(=O)NC(CCC(=O)O)C(=O)O)cc1 (stereo not drawn) | 2880 µM | 2590 µM | 2770 µM | 2820 µM | 1000 µM | 2460 µM | 2400 µM | 1290 µM | 2640 µM | 1310 µM | 2720 µM |  |  |  |  |  |  |  |  |  |
| CC1=C[C@H]([C@H]2C=C(C)C(C(N)=O)=CN2Cc2c(Cl)cccc2Cl)N(Cc2c(Cl)cccc2Cl)C=C1C(N)=O | > 75 µM | > 75 µM | > 75 µM | > 75 µM | > 75 µM | > 75 µM | > 75 µM | > 75 µM | > 75 µM | > 75 µM | > 75 µM |  |  |  |  |  |  |  |  |  |
| O=C1CCCCN1 | > 1120 µM | > 1120 µM | > 1120 µM | > 52 µM | > 1120 µM | > 1120 µM | > 1120 µM | > 1120 µM | > 1120 µM | > 1120 µM | > 350 µM |  |  |  |  |  |  |  |  |  |
| CC1=C(SCCO)C(=O)c2ccccc2C1=O | 33.6 µM | 20.3 µM | 27.3 µM | 30.6 µM | > 100 µM | 15.3 µM | 15.3 µM | 28.8 µM | 28.6 µM | 38.7 µM | 27.5 µM |  |  |  |  |  |  |  |  |  |
| c1ccc(SCCc2ccncc2)cc1 | > 100 µM | > 100 µM | > 100 µM | > 100 µM | > 100 µM | > 100 µM | > 100 µM | > 100 µM | > 100 µM | > 100 µM | > 100 µM |  |  |  |  |  |  |  |  |  |
| O=S(=O)(O)c1cc(S(=O)(=O)O)c2c(N=Nc3ccc(S(=O)(=O)O)c4ccccc34)c(O)ccc2c1 | > 100 µM | > 100 µM | > 100 µM |  | > 100 µM | > 100 µM | > 100 µM | > 100 µM | > 100 µM | > 100 µM | > 100 µM |  |  |  |  |  |  |  |  |  |
| COc1nc2ccc(CNc3ccc(C(=O)NC(CCC(=O)O)C(=O)O)cc3)cc2nc1OC (stereo not drawn) | > 100 µM | > 100 µM | > 100 µM | > 100 µM | > 100 µM | > 100 µM | > 100 µM |  | > 100 µM | > 100 µM | > 100 µM |  |  |  |  |  |  |  |  |  |
| Nc1nc(SCCNC(=O)CCc2ccc(O)c(I)c2)nc2c1ncn2C1OC(CO)C(O)C1O (stereo not drawn) | > 100 µM |  | > 100 µM | > 100 µM | > 100 µM | > 100 µM | > 100 µM |  | > 100 µM | > 100 µM | > 100 µM |  |  |  |  |  |  |  |  |  |
| COc1cc2c3c(n(CCCn4cncn4)c(=O)c2cc1OC)-c1cc2c(cc1C3=O)OCO2 | > 100 µM | > 100 µM | > 48.1 µM | > 100 µM | 3.5 µM | > 100 µM | > 100 µM | > 100 µM | > 100 µM | > 100 µM | > 100 µM | > 100 µM | 91.3 nM | 1360 nM | 16.8 µM | < 10 nM | 31.9 µM | > 100 µM | > 84.1 µM | > 73.1 µM |
| CC(=O)OCC1=CC2OC(=O)C3=COC(OC4OC(CO)C(O)C(O)C4O)C1C32 (stereo not drawn) | > 100 µM | > 100 µM |  | > 100 µM | > 100 µM | > 100 µM | > 100 µM | > 100 µM | > 100 µM | > 100 µM | > 100 µM |  |  |  |  |  |  |  |  |  |
| CC(=O)OCCCCN1C(=O)CSc2ccccc21 | > 100 µM | > 100 µM |  | > 100 µM | > 100 µM | > 100 µM | > 100 µM | > 100 µM |  |  | > 100 µM |  |  |  |  |  |  |  |  |  |
